Measured values reported in the supplement of paper PMC13380429.

What was measured:
Details in all cases: 72 h
[1] = test system: U2OS; test: relative viability EC50 (midpoint between 100% and the lowest measured viability); higher = less toxic
[2] = test system: Vero E6; test: as above
[3] = test system: Caco-2; test: as above
[4] = test system: HepG2; test: as above
[5] = test system: Calu-3; test: as above
[6] = test system: U2OS; test: cell viability relative to DMSO; higher = less toxic
[7] = test system: Vero E6; test: as above
[8] = test system: Caco-2; test: as above
[9] = test system: HepG2; test: as above
[10] = test system: Calu-3; test: as above
[11] = test system: U2OS; test: drug sensitivity score (DSS) for viability; higher = more toxic; extreme values may be limits of the assay
[12] = test system: Vero E6; test: as above
[13] = test system: Caco-2; test: as above
[14] = test system: HepG2; test: as above
[15] = test system: Calu-3; test: as above

Row | SMILES | relative viability EC50 [1] [µM] | relative viability EC50 [2] [µM] | relative viability EC50 [3] [µM] | relative viability EC50 [4] [µM] | relative viability EC50 [5] [µM] | cell viability ([6]; 1 nM) [%] | cell viability ([6]; 10 nM) [%] | cell viability ([6]; 100 nM) [%] | cell viability ([6]; 1000 nM) [%] | cell viability ([6]; 10000 nM) [%] | cell viability ([7]; 1 nM) [%] | cell viability ([7]; 10 nM) [%] | cell viability ([7]; 100 nM) [%] | cell viability ([7]; 1000 nM) [%] | cell viability ([7]; 10000 nM) [%] | cell viability ([8]; 1 nM) [%] | cell viability ([8]; 10 nM) [%] | cell viability ([8]; 100 nM) [%] | cell viability ([8]; 1000 nM) [%] | cell viability ([8]; 10000 nM) [%] | cell viability ([9]; 1 nM) [%] | cell viability ([9]; 10 nM) [%] | cell viability ([9]; 100 nM) [%] | cell viability ([9]; 1000 nM) [%] | cell viability ([9]; 10000 nM) [%] | cell viability ([10]; 1 nM) [%] | cell viability ([10]; 10 nM) [%] | cell viability ([10]; 100 nM) [%] | cell viability ([10]; 1000 nM) [%] | cell viability ([10]; 10000 nM) [%] | drug sensitivity score [11] | drug sensitivity score [12] | drug sensitivity score [13] | drug sensitivity score [14] | drug sensitivity score [15]
1 | CC(=O)NCC(=O)N1[C@@H]2CC[C@H]1c1ccc(Nc3ncc(C(F)(F)F)c(NC4CCC4)n3)cc12 | 1.37 | 1.39 | 1.28 | 1.27 | > 10 | 98.6 | 97.4 | 94.4 | 67.3 | 2.9 | 92.6 | 98.6 | 96.6 | 82.1 | 46 | 95.9 | 89.2 | 101 | 79.3 | 40.7 | 93.8 | 99.6 | 84.6 | 62.4 | 3.4 | 101 | 97.7 | 99.4 | 121 | 83 | 9.6 | 5.2 | 6.2 | 9.7 | 0.1
2 | CC(C)OC(=O)c1cc2c(OC[C@@H](O)CNC(C)(C)C)cccc2[nH]1 | > 10 | > 10 | > 10 | > 10 | > 10 | 96.1 | 99.3 | 96.1 | 98.3 | 91.9 | 101 | 102 | 99.6 | 93.4 | 94.2 | 92.3 | 93 | 105 | 89.5 | 103 | 98.2 | 103 | 102 | 95.7 | 90.4 | 114 | 102 | 91.6 | 108 | 91.3 | 0 | 0 | 0 | 0 | 0
3 | CC(C)[C@H](NS(=O)(=O)c1ccc(-c2ccc(Br)cc2)cc1)C(=O)O | > 10 | > 10 | > 10 | > 10 | > 10 | 101 | 97.5 | 99.5 | 96.4 | 102 | 93.2 | 95.9 | 87.7 | 92.2 | 102 | 96.3 | 86.2 | 93.5 | 92.6 | 89.8 | 98.3 | 109 | 87.8 | 110 | 110 | 106 | 102 | 91.4 | 104 | 92.9 | 0 | 0 | 0 | 0 | 0
4 | CC(CNS(=O)(=O)C(C)C)c1ccc(-c2ccc(C#N)cc2)cc1 (stereo not drawn) | > 10 | > 10 | > 10 | 3.06 | > 10 | 103 | 102 | 99.2 | 101 | 85.8 | 109 | 99.9 | 106 | 97.7 | 98.6 | 98 | 106 | 97.7 | 104 | 80.8 | 111 | 117 | 104 | 98.9 | 30.5 | 93.8 | 97.6 | 102 | 108 | 90.4 | 0.1 | 0 | 0.4 | 4 | 0
5 | C[C@H](NC(=O)CNC(=O)c1cccc(Cl)c1)c1ccccc1 | > 10 | > 10 | > 10 | > 10 | > 10 | 101 | 96.8 | 99.7 | 98.1 | 101 | 103 | 96.2 | 96.4 | 104 | 99.1 | 100 | 102 | 96.6 | 100 | 102 | 102 | 107 | 98.8 | 98.6 | 101 | 91.2 | 95.1 | 96.3 | 108 | 90.8 | 0 | 0 | 0 | 0 | 0
6 | Cc1c[nH]c(=O)n(CCCN2CCN(c3ccccc3OCC(F)(F)F)CC2)c1=O | > 10 | > 10 | – | > 10 | > 10 | 101 | 102 | 100 | 101 | 102 | 102 | 96.2 | 99.2 | 98.7 | 105 | – | – | – | – | – | 98.7 | 96.2 | 95.9 | 98.2 | 103 | 90.5 | 99 | 99.1 | 96.6 | 87.4 | 0 | 0 | – | 0 | 0.3
